Columns and labels:
[1] = Cytotoxicity against CHL cells assessed as structural aberrations at 825 ug/ml preincubated for 6 hrs followed by 18 hrs incubation in fresh medium in presence of S9 fraction by Giemsa-staining-based microscopic analysis; assay type: toxicity, cell-based, Cricetulus griseus; conditions: chinese hamster
[2] = Cytotoxicity against CHL cells assessed as structural aberrations at 825 ug/ml preincubated for 6 hrs followed by 18 hrs incubation in fresh medium in absence of S9 fraction by Giemsa-staining-based microscopic analysis; assay type: toxicity, cell-based, Cricetulus griseus; conditions: chinese hamster

COP(=O)(CCC(N)C(=O)O)Oc1cccc(CC(=O)O)c1 (configuration not stated) showed an Activity [1] of 1% and an Activity [2] of 3%.
